Source: patent publication US10611760B2, “Therapeutic compounds as inhibitors of the orexin-1 receptor” (C4X Discovery Limited, priority 2014, dated 2020)

Columns and labels:
Type in all cases: cell-based
hOX1R [1] = molecular target: T1, hOX1R (Homo sapiens, UniProt O43613); experiment: Intracellular calcium measurements using stable-replicating cells, Method A, OX1; conditions: orexin-A at 4×EC50, * = single experiment, read-out: pIC50 OX1 (converted)
T1 sequence (O43613 1-425): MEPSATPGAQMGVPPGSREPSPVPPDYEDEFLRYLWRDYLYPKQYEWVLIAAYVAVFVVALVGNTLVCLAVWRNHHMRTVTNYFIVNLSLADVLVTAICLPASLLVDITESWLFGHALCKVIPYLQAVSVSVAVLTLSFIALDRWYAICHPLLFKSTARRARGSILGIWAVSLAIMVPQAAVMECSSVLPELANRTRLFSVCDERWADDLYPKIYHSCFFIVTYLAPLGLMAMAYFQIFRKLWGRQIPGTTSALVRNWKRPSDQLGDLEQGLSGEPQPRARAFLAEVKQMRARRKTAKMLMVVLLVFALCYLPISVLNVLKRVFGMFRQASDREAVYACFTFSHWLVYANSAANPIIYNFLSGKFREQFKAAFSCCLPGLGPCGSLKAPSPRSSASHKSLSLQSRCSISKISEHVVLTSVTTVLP
Protocol: (§1) Intracellular Calcium Measurements Using Stable-replicating Cells:
(§2) Method A (Table 2): Test compounds are prepared as 10 mM stock solutions in DMSO, warmed briefly for 20 seconds at 37° C. and serially diluted in half log concentrations with DMSO followed by dilution with assay buffer (HBSS (Sigma-Aldrich, H8264) containing 10 mM HEPES (Invitrogen, 15630080) and pH adjusted to 7.4) to a top final assay concentration of 10 μM.
(§3) Human OX1 (CT-A674) and human OX2 (CT-A675) receptor-expressing stable-replicating cells are grown in a culture medium, Ham F12 (Invitrogen, 31765-035) containing 10% fetal bovine serum (Invitrogen, 16000044), 1% non-essential amino acids (Invitrogen, 11140-050), 100 U/mL Penicillin/Streptomycin (Invitrogen, 15140-122) and G418 (Invitrogen, 11811023) at a concentration of 400 μg/mL. The cells are seeded at a density of 7,000 cells/well into black, clear bottom 384-well plates (Corning, 3683) and incubated at 37° C. in air supplemented with 5% CO2 for 16 hrs.
(§4) Loading dye (25 μL/well), prepared from a FLIPR Calcium 6 Assay kit (Molecular Devices, R8190-Explorer) according to the manufacturer's instructions, and the serially diluted test compounds (10 μL/well) are added to the plate. The plate is then incubated for 30 mins at 37° C. in 5% CO2, then for 30 mins at ambient temperature and placed into a FlexStation III reader.

hOX2R [2] = molecular target: T2, hOX2R (Homo sapiens, UniProt O43614); experiment: Intracellular calcium measurements using stable-replicating cells, Method A, OX2; conditions: orexin-A at 4×EC50, * = single experiment, read-out: pIC50 OX2 (converted)
T2 sequence (O43614 1-444): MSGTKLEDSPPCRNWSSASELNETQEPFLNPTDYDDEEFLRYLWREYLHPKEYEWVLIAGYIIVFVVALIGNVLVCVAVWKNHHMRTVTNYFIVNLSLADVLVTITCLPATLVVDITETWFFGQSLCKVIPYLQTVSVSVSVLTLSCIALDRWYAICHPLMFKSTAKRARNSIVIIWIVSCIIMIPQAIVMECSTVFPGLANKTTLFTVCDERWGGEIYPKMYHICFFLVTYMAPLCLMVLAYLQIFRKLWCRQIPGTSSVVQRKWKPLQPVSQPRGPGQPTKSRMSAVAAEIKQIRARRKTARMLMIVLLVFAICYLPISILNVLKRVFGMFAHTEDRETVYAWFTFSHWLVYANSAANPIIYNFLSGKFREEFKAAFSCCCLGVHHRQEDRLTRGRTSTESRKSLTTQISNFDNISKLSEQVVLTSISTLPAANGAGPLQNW
Protocol: as §1, §2, §3, §4

hOX1R [3] = molecular target: T1, hOX1R; experiment: Intracellular calcium measurements using stable-replicating cells, Method B (CHO cells, FLIPR Tetra), OX1; conditions: orexin A at EC75, read-out: pIC50 OX1 (converted)
Protocol: as §1
(§5) Human OX1 or human OX2 receptor expressing CHO cells are plated into 384 well black, clear bottom, CellBIND plates at a seeding density of 10,000 cells/75 μL growth media. The seeded plates are incubated at 37° C. in air supplemented with 5% CO2 overnight.
(§6) The next day media is removed and replaced with 30 μL/well of cell loading buffer (a vial of Calcium 5 is solubilized in 20 mL of assay buffer) and the cells incubated for 1 hr at 37° C. The serially diluted test compounds (10 μL/well) are added to the cell plate by the FLIPR Tetra and the addition is monitored for 5 mins by the instrument. The cell plate is then removed and incubated for additional 25 mins in a humidified incubator at […] prior to being placed back into the FLIPR Tetra. Finally 10 μL of orexin A in assay buffer +0.1% (w/v) bovine serum albumin is dispensed by the FLIPR Tetra at an EC75 concentration determined for each assay run. Fluorescence is measured at excitation and emission wavelengths of 485 nm and 525 nm respectively and data analyzed using GraphPad Prism for the EC75 value of orexin A and Aplus to determine an IC50 value for each test compound.

hOX2R [4] = molecular target: T2, hOX2R; experiment: Intracellular calcium measurements using division-arrested cells, OX2; conditions: agonist orexin B at 2×EC50, * = single experiment, otherwise average of at least two, read-out: pIC50 OX2 (converted)
Outline: (§7)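 Division-arrested cells expressing human OX1 or OX2 were seeded for 16 h, then loaded with Calcium 5 dye plus probenecid for 1 h at 37 °C. Compounds in HEPES-buffered HBSS with 0.1% BSA, pH 7.4, top final concentration 10 μM, were added 10 min before the FlexStation calcium read.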

hOX2R [5] = molecular target: T2, hOX2R; experiment: Intracellular calcium measurements using stable-replicating cells, Method B (CHO cells, FLIPR Tetra), OX2; conditions: orexin A at EC75, read-out: pIC50 OX2 (converted)
Protocol: as §1, §5, §6

hOX1R [6] = molecular target: T1, hOX1R; experiment: Intracellular calcium measurements using division-arrested cells, OX1; conditions: agonist orexin A at 2×EC50, * = single experiment, otherwise average of at least two, read-out: pIC50 OX1 (converted)
Outline: as §7

IC50 (hOX1R [1])	IC50 (hOX2R [2])	IC50 (hOX1R [3])	IC50 (hOX2R [4])	IC50 (hOX2R [5])	IC50 (hOX1R [6])	SMILES
39.8 nM	> 10000 nM	10 nM				Cc1ccc(-n2nccn2)c(C(=O)N(C)[C@H](CNc2ncc(C(F)(F)F)cn2)CC(F)(F)F)n1 [Example 88, (S)—N,6-dimethyl-3-(2H-1,2,3-triazol-2-yl)-N-(4,4,4-trifluoro-1-((5-(trifluoromethyl)pyrimidin-2-yl)amino)butan-2-yl)picolinamide]
7.94 nM	316 nM					CC[C@@H](CNc1ccc(Cl)cn1)N(C)C(=O)c1cc(C)c(C)cc1-n1nccn1 [Example 86, (S)—N-(1-((5-chloropyridin-2-yl)amino)butan-2-yl)-N,4,5-trimethyl-2-(2H-1,2,3-triazol-2-yl)benzamide]
5.01 nM	2510 nM					CC[C@@H](CNc1nc2cc(Cl)ccc2o1)N(C)C(=O)c1nc(C)ccc1-n1nccn1 [Example 64, (S)—N-(1-((5-chlorobenzo[d]oxazol-2-yl)amino)butan-2-yl)-N,6-dimethyl-3-(2H-1,2,3-triazol-2-yl)picolinamide]
7.94 nM	1260 nM	0.794 nM		501 nM		CC[C@@H](CNc1ccc2ccccc2n1)N(C)C(=O)c1cc(Cl)ccc1-n1nccn1 [Example 77, (S)-5-chloro-N-methyl-N-(1-(quinolin-2-ylamino)butan-2-yl)-2-(2H-1,2,3-triazol-2-yl)benzamide]
39.8 nM	251 nM	5.01 nM		251 nM		CC[C@@H](CNc1ncc(C(F)(F)F)cn1)N(C)C(=O)c1nc(N(C)C)cc2ccccc12 [Example 81, (S)-3-(dimethylamino)-N-methyl-N-(1-((5-(trifluoromethyl)pyrimidin-2-yl)amino)butan-2-yl)isoquinoline-1-carboxamide]
6.31 nM	2000 nM	1.26 nM		2510 nM		CC[C@@H](CNc1ccc2ccccc2n1)N(C)C(=O)c1nc(C)ccc1-n1nccn1 [Example 75, (S)—N,6-dimethyl-N-(1-(quinolin-2-ylamino)butan-2-yl)-3-(2H-1,2,3-triazol-2-yl)picolinamide]
50.1 nM	3160 nM	100 nM				CC[C@@H](CNc1ncc(C(F)(F)F)cn1)N(C)C(=O)c1nccc2ccccc12 [Example 85, (S)—N-methyl-N-(1-((5-(trifluoromethyl)pyrimidin-2-yl)amino)butan-2-yl)isoquinoline-1-carboxamide]
25.1 nM	1000 nM	15.8 nM				CC[C@@H](CNc1ncc(C(F)(F)F)cn1)N(C)C(=O)c1nc(C)cc2ccccc12 [Example 78, (S)—N,3-dimethyl-N-(1-((5-(trifluoromethyl)pyrimidin-2-yl)amino)butan-2-yl)isoquinoline-1-carboxamide]

Second part, the compound before the results:

SMILES	IC50 (hOX1R [1])	IC50 (hOX2R [2])	IC50 (hOX1R [3])	IC50 (hOX2R [4])	IC50 (hOX2R [5])	IC50 (hOX1R [6])
CC[C@@H](CNc1ccc(Cl)cn1)N(C)C(=O)c1cc(C)ccc1-n1nccn1 [Example 1, (S)—N-(1-((5-chloropyridin-2-yl)amino)butan-2-yl)-N,5-dimethyl-2-(2H-1,2,3-triazol-2-yl)benzamide]		1260 nM		1000 nM		
CC[C@@H](CNc1nc2ccccc2s1)N(C)C(=O)c1nc(C)ccc1-n1nccn1 [Example 63, (S)—N-(1-(benzo[d]thiazol-2-ylamino)butan-2-yl)-N,6-dimethyl-3-(2H-1,2,3-triazol-2-yl)picolinamide]	1.58 nM	1260 nM	1.58 nM		501 nM	
CC[C@@H](CNc1ncc(C(F)(F)F)cn1)N(C)C(=O)c1cc(Cl)ccc1-n1nccn1 [Example 39, (S)-5-chloro-N-methyl-2-(2H-1,2,3-triazol-2-yl)-N-(1-((5-(trifluoromethyl)pyrimidin-2-yl)amino)butan-2-yl)benzamide]		> 10000 nM		1000 nM	1580 nM	
CC[C@@H](CNc1nc2ccccc2o1)N(C)C(=O)c1cc(Cl)ccc1-n1nccn1 [Example 43, (S)—N-(1-(benzo[d]oxazol-2-ylamino)butan-2-yl)-5-chloro-N-methyl-2-(2H-1,2,3-triazol-2-yl)benzamide]	10 nM	1000 nM	0.794 nM		794 nM	
Cc1nc(-c2ccccc2)c(C(=O)N[C@H](CNc2ccc(Cl)cn2)C(C)C)s1 [Example 6, (S)—N-(1-((5-chloropyridin-2-yl)amino)-3-methylbutan-2-yl)-2-methyl-4-phenylthiazole-5-carboxamide]	3160 nM	> 10000 nM		> 10000 nM		501 nM
CC[C@@H](CNc1nc2ccccc2s1)N(C)C(=O)c1cc(Cl)ccc1-n1nccn1 [Example 44, (S)—N-(1-(benzo[d]thiazol-2-ylamino)butan-2-yl)-5-chloro-N-methyl-2-(2H-1,2,3-triazol-2-yl)benzamide]	7.94 nM		1.58 nM			
CC[C@@H](CNc1ncc(Cl)cc1N)N(C)C(=O)c1cc(Cl)ccc1-n1nccn1 [Example 60, (S)—N-(1-((3-amino-5-chloropyridin-2-yl)amino)butan-2-yl)-5-chloro-N-methyl-2-(2H-1,2,3-triazol-2-yl)benzamide]	39.8 nM	> 10000 nM				
Cc1nc(-c2ccccc2)c(C(=O)N(C)[C@H](CNc2ccc(Cl)cn2)CC(C)C)s1 [Example 9, (S)—N-(1-((5-chloropyridin-2-yl)amino)-4-methylpentan-2-yl)-N,2-dimethyl-4-phenylthiazole-5-carboxamide]	2000 nM	> 10000 nM		> 10000 nM		251 nM
CC[C@@H](CNc1ncc(Cl)cc1[N+](=O)[O-])N(C)C(=O)c1cc(Cl)ccc1-n1nccn1 [Example 45, (S)-5-chloro-N-(1-((5-chloro-3-nitropyridin-2-yl)amino)butan-2-yl)-N-methyl-2-(2H-1,2,3-triazol-2-yl)benzamide]	126 nM	> 10000 nM				
CC[C@@H](CNc1nc2ccccc2o1)N(C)C(=O)c1nc(C)ccc1-n1nccn1 [Example 62, (S)—N-(1-(benzo[d]oxazol-2-ylamino)butan-2-yl)-N,6-dimethyl-3-(2H-1,2,3-triazol-2-yl)picolinamide]	5.01 nM		3.16 nM		2510 nM	
